Test results taken from ChEMBL document CHEMBL1130889, “The synthesis and biological evaluation of a novel series of indole PDE4 inhibitors I” (Bioorg Med Chem Lett, 1998).

How the values were obtained:
[1] = molecular target: Phosphodiesterase 4 (Cavia porcellus); experiment: Inhibitory activity against Phosphodiesterase type IV (PDE4) obtained from guinea-pig macrophage was evaluated
[2] = molecular target: Phosphodiesterase 4 (Cavia porcellus); experiment: Binding affinity against PDE4 was determined using [3H]- rolipram in guinea pig brain membrane binding assay
[3] = system: PBMC; experiment: Inhibition of tumor necrosis factor-alpha release from activated human monocyte cells in the presence of RP73401.; type: functional, cell-based
[4] = system: PBMC; experiment: Inhibition of tumor necrosis factor-alpha release from activated human monocyte cells at 0.3 uM; type: functional, cell-based
[5] = system: Mus musculus; experiment: Inhibition of LPS-induced tumor necrosis factor-alpha (TNF-alpha) production in mice at 50 mg/kg; type: functional
[6] = system: PBMC; experiment: Inhibition of tumor necrosis factor-alpha release from activated human monocyte cells.; type: functional, cell-based
[7] = Maximum plasma concentration was evaluated in mice after oral administration; type: ADME, organism-based; conditions: mouse, read-out: Cp max
[8] = Bioavailability was evaluated in mice after oral administration; type: ADME, organism-based; conditions: mouse, in vivo, read-out: Bioavailabiility
[9] = Area under the curve was evaluated in mice after oral administration; type: ADME, organism-based; conditions: mouse, in vivo
[10] = Area under the curve was evaluated in mice after intravenous administration; type: ADME, organism-based; conditions: mouse, in vivo
[11] = Terminal half life was evaluated in mice after oral administration; type: ADME, organism-based; conditions: mouse, in vivo
[12] = Maximum time required to reach Cp max was evaluated in mice after oral administration; type: ADME, organism-based; conditions: mouse, plasma
[13] = Terminal half life was evaluated in mice after intravenous administration; type: ADME, organism-based; conditions: mouse, in vivo
[14] = Clearance was evaluated in mice after intravenous administration; type: ADME, organism-based; conditions: mouse, in vivo
[15] = Volume of distribution was evaluated in mice after intravenous administration; type: ADME, organism-based; conditions: mouse, in vivo, read-out: Vdss
[16] = system: PBMC; experiment: Inhibition of tumor necrosis factor-alpha release from activated human monocyte cells at […]; type: functional, cell-based

Row | Structure (SMILES) | IC50 [1] [nM] | Ki [2] [nM] | IC50 [3] [nM] | inhibition in vivo at 50 mg/kg [5] [%] | IC50 [6] [nM] | also measured
1 | Cc1c[nH]c2cc(C(=O)Nc3c(Cl)cncc3Cl)ccc12 | 5 | – | – | – | – | –
2 | Cc1ccc(S(=O)(=O)n2cc(Cc3ccccc3)c3ccc(C(=O)Nc4c(Cl)cncc4Cl)cc32)cc1 | > 10000 | > 3745 | – | – | – | –
3 | Cc1cn(Cc2cccc([N+](=O)[O-])c2)c2cc(C(=O)Nc3c(Cl)cncc3Cl)ccc12 | 52 | 75 | 2 | 16 | 34 | –
4 | COc1ccc(C(=O)Nc2c(Cl)cncc2Cl)cc1OC1CCCC1 | – | – | – | – | – | ED50 [5]: 10 mg/kg
5 | Cc1cn(Cc2ccc(S(C)(=O)=O)cc2)c2cc(C(=O)Nc3c(Cl)cncc3Cl)ccc12 | 200 | 300 | > 1 | 0 | 134 | –
6 | Cc1ccc(S(=O)(=O)n2cc(C)c3ccc(C(=O)Nc4c(Cl)cncc4Cl)cc32)cc1 | 45 | 712 | 3 | 0 | 300 | –
7 | CCc1cn(S(=O)(=O)c2ccc(C)cc2)c2cc(C(=O)Nc3c(Cl)cncc3Cl)ccc12 | 2900 | > 3745 | – | – | – | –
8 | COc1ccc(Cn2cc(C)c3ccc(C(=O)Nc4c(Cl)cncc4Cl)cc32)cc1 | – | – | 3 | 20 | 60 | Cmax [7]: 9.9 ng/mL; bioavailability [8]: 3.7%; AUC [9]: 25.3 ng·h/mL; AUC [10]: 678 ng·h/mL; half-life [11]: 1.7 h; Tmax [12]: 0.5 h; half-life [13]: 2.6 h; clearance [14]: 24.7 mL/min/kg; Vd [15]: 2.4 L/kg
9 | Cc1cn(Cc2cccc3ccccc23)c2cc(C(=O)Nc3c(Cl)cncc3Cl)ccc12 | 46 | 60 | 10 | – | 1300 | –
10 | Cc1cn(Cc2ccc3ccccc3c2)c2cc(C(=O)Nc3c(Cl)cncc3Cl)ccc12 | 5.2 | 7 | 10.5 | 0 | 90 | –
11 | Cc1cn(Cc2ccc(C(N)=O)cc2)c2cc(C(=O)Nc3c(Cl)cncc3Cl)ccc12 | 300 | 220 | < 1 | 0 | 53 | –

Further lines, with some results ahead:

Row | IC50 [1] [nM] | Ki [2] [nM] | Structure (SMILES) | IC50 [3] [nM] | inhibition in vivo at 50 mg/kg [5] [%] | IC50 [6] [nM] | also measured
12 | 80 | 54 | COc1ccccc1Cn1cc(C)c2ccc(C(=O)Nc3c(Cl)cncc3Cl)cc21 | – | – | – | –
13 | 380 | 172 | Cc1cn(CCN2CCOCC2)c2cc(C(=O)Nc3c(Cl)cncc3Cl)ccc12 | 3 | – | – | IC50 [4]: 28 nM
14 | 100 | 120 | Cc1cn(CC2CCCCC2)c2cc(C(=O)Nc3c(Cl)cncc3Cl)ccc12 | 8 | 0 | 200 | –
15 | 18 | 135 | Cc1cn(Cc2ccccc2)c2cc(C(=O)Nc3c(Cl)cncc3Cl)ccc12 | 4 | 0 | 23 | –
16 | 42 | 24 | Cc1nc(Cn2cc(C)c3ccc(C(=O)Nc4c(Cl)cncc4Cl)cc32)cs1 | 1.5 | 0 | 24.1 | –
17 | 187 | 75 | Cc1noc(C)c1Cn1cc(C)c2ccc(C(=O)Nc3c(Cl)cncc3Cl)cc21 | 18 | 0 | 580 | –
18 | 70 | 280 | Cc1cn(CCc2ccccc2)c2cc(C(=O)Nc3c(Cl)cncc3Cl)ccc12 | 0.9 | – | 8 | –
19 | 60 | 75 | COc1cccc(Cn2cc(C)c3ccc(C(=O)Nc4c(Cl)cncc4Cl)cc32)c1 | – | – | – | –
20 | 25 | 41 | Cc1cn(CCCc2ccccc2)c2cc(C(=O)Nc3c(Cl)cncc3Cl)ccc12 | 3 | 17 | 168 | –
21 | 220 | 187 | Cc1cn(CCCC2CCCCC2)c2cc(C(=O)Nc3c(Cl)cncc3Cl)ccc12 | 0.7 | 27 | 12 | –
22 | 3.2 | 21 | Cc1cn(CCC2CCCCC2)c2cc(C(=O)Nc3c(Cl)cncc3Cl)ccc12 | 0.7 | 0 | 2 | –
23 | 25 | 66 | CCCCCCCn1cc(C)c2ccc(C(=O)Nc3c(Cl)cncc3Cl)cc21 | 3 | 22 | 11 | –
24 | 15 | 374 | Cc1cn(C2CCCC2)c2cc(C(=O)Nc3c(Cl)cncc3Cl)ccc12 | 3 | – | – | IC50 [16]: 30 nM
